Laboratory results as given in US20200323888A1, “INHIBITORS” (VESTLANDETS INNOVASJONSSELSKAP AS, priority 2017, published 2020).

Columns and labels:
[1] = target: T1, NatA (Homo sapiens, UniProt P41227); experiment: Nt-acetylation inhibitor assay, immunoprecipitated NatA complex, HPLC quantification; assay type: biochemical
T1 construct: endogenous in cells
T1 sequence (P41227 1-235): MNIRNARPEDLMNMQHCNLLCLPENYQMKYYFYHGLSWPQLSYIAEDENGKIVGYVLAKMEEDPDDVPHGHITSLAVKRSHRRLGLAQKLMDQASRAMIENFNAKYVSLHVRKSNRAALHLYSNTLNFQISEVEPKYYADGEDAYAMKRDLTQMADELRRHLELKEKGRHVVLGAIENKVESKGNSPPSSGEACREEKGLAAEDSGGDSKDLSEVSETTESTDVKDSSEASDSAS
T1 sequence (Q9BXJ9 1-866 partner): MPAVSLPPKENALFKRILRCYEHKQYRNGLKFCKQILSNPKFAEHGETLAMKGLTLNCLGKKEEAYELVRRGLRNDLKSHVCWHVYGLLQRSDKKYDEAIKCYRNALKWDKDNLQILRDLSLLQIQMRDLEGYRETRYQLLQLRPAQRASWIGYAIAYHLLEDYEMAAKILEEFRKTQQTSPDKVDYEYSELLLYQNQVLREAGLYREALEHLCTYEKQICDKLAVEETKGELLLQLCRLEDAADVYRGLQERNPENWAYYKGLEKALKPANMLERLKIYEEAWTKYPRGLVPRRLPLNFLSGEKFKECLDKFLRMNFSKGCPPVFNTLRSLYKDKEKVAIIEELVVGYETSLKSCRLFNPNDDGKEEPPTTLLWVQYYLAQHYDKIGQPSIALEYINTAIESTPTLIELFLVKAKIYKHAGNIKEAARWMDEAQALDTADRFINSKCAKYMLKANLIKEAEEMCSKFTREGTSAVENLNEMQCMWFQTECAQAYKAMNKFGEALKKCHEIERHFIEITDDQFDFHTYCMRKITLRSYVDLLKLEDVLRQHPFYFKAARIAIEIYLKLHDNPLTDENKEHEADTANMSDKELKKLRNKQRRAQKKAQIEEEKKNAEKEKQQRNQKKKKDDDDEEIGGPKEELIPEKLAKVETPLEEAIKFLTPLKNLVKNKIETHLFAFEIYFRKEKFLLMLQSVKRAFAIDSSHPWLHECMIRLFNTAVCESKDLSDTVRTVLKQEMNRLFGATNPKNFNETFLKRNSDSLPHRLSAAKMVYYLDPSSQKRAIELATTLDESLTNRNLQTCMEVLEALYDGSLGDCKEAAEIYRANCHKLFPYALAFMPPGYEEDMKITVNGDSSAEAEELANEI
Experimental: The IC50 values for these compounds were tested as described in Foyn H, et al. (2013) “Design, Synthesis, and Kinetic Characterization of Protein N-Terminal Acetyltransferase Inhibitors”. ACS Chem Biol 8:1121-1127; and Foyn H, et al. (2017) “DTNB-Based quantification of in vitro enzymatic N-terminal acetyltransferase activity”, Methods Mol. Biol. 1574:9-15. Briefly, a colorimetric acetylation assay, 5,5′-dithiobis-(2-nitrobenzoic acid) (DTNB) assay was used to measure the catalytic activity of NATs after incubation with NAT inhibitors. In the DTNB assay, thiols present in the enzymatic product, CoA, cleaves DTNB and produces 2-nitro-5-thiobenzoate (NTB-), which absorbs light with a wavelength of 412 nm. NTB- forms in a 1:1 molar ratio to the thiol groups present in the sample. Therefore, NTB- was quantified by measuring the absorbance at 412 nm and indirectly measures peptide Nt-acetylation. Recombinant purified NAT enzyme was mixed with different substrate peptides (300 uM, custom-made) and Ac-CoA (300 uM) in acetylation buffer (50 mM Tris/HEPES pH 8.5-7.4, 100 mM NaCl, 10% glycerol and 0.2 mM EDTA) and with inhibitor concentration (0-500 uM). After 30 min-60 min incubation at 37° C., the enzyme activity was quenched with quenching buffer (3.2 M guanidinium-HCl, 100 mM sodium phosphate dibasic pH 6.8). Triplicates were run for all positive samples, while negative controls were duplicated. As a negative control, reactions without enzyme were incubated at 37° C. before the reaction was quenched and added enzyme. In order to measure CoA production, 2 mM DTNB (dissolved in 100 mM sodium phosphate dibasic pH 6.8 and 10 mM EDTA) was added to the quenched reaction and the absorbance at 412 nm was measured with a spectrophotometer (Epoc). Background absorbance (determined in negative controls) was subtracted from the absorbance determined in each individual reaction. Thiophenolate production was quantified assuming ε=13.7×103 M−1 cm−1. […] A similar Nt-acetylation reaction was performed as previously described and the enzymatic activity was quenched with a final concentration of 1% TFA and analyzed by HPLC (Evjenth R, Van Damme P, Gevaert K, Arnesen T (2013) HPLC-based Quantification of in vitro N-terminal Acetylation. Methods Mol Biol 981:95-102.).
In order to ensure selectivity towards NatA, the CoA-Ac-SSNIeP (SEQ ID NO: 4) was tested against other NATs. Using the Cheng-Prusoff equation for competitive inhibitors, the dissociation constant, Ki, was calculated from IC50 values and [S]/Km ratios for all the NATs.

[2] = target: NatB (Homo sapiens, UniProt P61599); experiment: Nt-acetylation inhibitor assay, immunoprecipitated NatB complex, HPLC quantification; assay type: biochemical; parameters: endogenous in cells; details: calculated from IC50 with Cheng-Prusoff equation
NatB, sequence (P61599 whole entry): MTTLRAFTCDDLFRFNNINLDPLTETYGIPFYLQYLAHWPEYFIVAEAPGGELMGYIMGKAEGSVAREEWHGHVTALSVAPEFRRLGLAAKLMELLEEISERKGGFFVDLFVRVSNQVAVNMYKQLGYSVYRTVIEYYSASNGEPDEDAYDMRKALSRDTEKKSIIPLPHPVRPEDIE
NatB, sequence (Q14CX7 whole entry partner): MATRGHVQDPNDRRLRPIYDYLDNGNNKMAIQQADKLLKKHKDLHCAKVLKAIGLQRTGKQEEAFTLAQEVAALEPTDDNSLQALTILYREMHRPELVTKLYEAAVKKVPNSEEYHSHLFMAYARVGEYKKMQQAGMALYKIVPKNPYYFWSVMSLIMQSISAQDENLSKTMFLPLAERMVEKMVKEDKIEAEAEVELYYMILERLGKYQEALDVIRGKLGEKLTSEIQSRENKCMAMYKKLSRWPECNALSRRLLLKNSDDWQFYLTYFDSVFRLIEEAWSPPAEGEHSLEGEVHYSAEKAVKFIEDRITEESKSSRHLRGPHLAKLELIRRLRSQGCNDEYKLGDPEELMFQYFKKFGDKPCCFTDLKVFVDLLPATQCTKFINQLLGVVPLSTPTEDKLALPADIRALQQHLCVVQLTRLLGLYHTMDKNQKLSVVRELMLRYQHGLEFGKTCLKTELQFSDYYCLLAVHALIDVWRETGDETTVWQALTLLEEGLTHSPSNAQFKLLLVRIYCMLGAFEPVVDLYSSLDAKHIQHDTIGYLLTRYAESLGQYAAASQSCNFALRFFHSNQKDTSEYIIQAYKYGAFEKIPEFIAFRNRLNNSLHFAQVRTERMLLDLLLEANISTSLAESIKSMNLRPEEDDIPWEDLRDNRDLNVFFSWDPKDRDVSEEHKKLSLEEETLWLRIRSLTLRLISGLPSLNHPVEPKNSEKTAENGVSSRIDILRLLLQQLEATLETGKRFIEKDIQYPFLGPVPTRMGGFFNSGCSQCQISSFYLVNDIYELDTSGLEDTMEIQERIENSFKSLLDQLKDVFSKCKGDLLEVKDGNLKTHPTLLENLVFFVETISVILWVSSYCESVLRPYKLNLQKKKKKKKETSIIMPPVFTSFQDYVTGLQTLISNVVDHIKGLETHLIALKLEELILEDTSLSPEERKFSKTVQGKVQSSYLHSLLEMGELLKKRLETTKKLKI
Experimental: (§1) The IC50 values for these compounds were tested as described in Foyn H, et al. (2013) “Design, Synthesis, and Kinetic Characterization of Protein N-Terminal Acetyltransferase Inhibitors”. ACS Chem Biol 8:1121-1127; and Foyn H, et al. (2017) “DTNB-Based quantification of in vitro enzymatic N-terminal acetyltransferase activity”, Methods Mol. Biol. 1574:9-15. Briefly, a colorimetric acetylation assay, 5,5′-dithiobis-(2-nitrobenzoic acid) (DTNB) assay was used to measure the catalytic activity of NATs after incubation with NAT inhibitors. […] Therefore, NTB- was quantified by measuring the absorbance at 412 nm and indirectly measures peptide Nt-acetylation. […] In order to measure CoA production, 2 mM DTNB (dissolved in 100 mM sodium phosphate dibasic pH 6.8 and 10 mM EDTA) was added to the quenched reaction and the absorbance at 412 nm was measured with a spectrophotometer (Epoc). Background absorbance (determined in negative controls) was subtracted from the absorbance determined in each individual reaction. Thiophenolate production was quantified assuming ε=13.7×103 M−1 cm−1. […] A similar Nt-acetylation reaction was performed as previously described and the enzymatic activity was quenched with a final concentration of 1% TFA and analyzed by HPLC (Evjenth R, Van Damme P, Gevaert K, Arnesen T (2013) HPLC-based Quantification of in vitro N-terminal Acetylation. Methods Mol Biol 981:95-102.). […]

[3] = target: T2, Naa30 (Homo sapiens, UniProt Q147X3); experiment: Nt-acetylation inhibitor assay (DTNB), Naa30; assay type: biochemical; details: calculated from IC50 with Cheng-Prusoff equation
T2 sequence (Q147X3 1-362): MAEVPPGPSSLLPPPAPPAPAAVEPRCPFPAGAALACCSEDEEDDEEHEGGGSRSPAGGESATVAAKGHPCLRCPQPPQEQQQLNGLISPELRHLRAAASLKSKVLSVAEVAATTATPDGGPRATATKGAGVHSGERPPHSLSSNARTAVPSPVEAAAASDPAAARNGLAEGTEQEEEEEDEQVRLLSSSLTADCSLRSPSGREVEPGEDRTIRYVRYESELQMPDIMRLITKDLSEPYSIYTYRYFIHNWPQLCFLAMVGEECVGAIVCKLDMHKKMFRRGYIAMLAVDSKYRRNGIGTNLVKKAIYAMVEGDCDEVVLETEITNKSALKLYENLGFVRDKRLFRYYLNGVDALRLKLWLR
Experimental: as §1

[4] = target: T3, Naa10 (Homo sapiens, UniProt P41227); experiment: Nt-acetylation inhibitor assay (DTNB), Naa10; assay type: biochemical; details: Naa10; calculated from IC50 with Cheng-Prusoff equation
T3 sequence (P41227 1-235): T1 sequence (P41227 1-235)
Experimental: as §1

[5] = target: Naa40 (Homo sapiens, UniProt Q86UY6); experiment: Nt-acetylation inhibitor assay (DTNB), Naa40; assay type: biochemical; details: calculated from IC50 with Cheng-Prusoff equation
Experimental: as §1

[6] = target: Naa60 (Homo sapiens, UniProt Q9H7X0); experiment: Nt-acetylation inhibitor assay (DTNB), Naa60; assay type: biochemical; details: calculated from IC50 with Cheng-Prusoff equation
Naa60, sequence (Q9H7X0 whole entry, looked up): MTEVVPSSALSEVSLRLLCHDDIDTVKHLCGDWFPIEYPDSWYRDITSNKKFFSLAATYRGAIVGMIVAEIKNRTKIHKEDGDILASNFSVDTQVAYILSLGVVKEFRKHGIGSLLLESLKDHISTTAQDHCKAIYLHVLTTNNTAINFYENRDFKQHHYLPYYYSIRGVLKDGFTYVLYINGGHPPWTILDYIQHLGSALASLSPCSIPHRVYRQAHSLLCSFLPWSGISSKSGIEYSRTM
Experimental: as §1

[7] = test system: zebrafish embryos; experiment: Phenotype after injection into zebrafish embryos; assay type: in vivo; details: injected into zebrafish embryos; compared with reference inhibitor
Source text: A norleucine (Nle) residue was therefore tried in place of methionine in order to try to circumvent the synthesis problem.

[8] = target: T4, Naa50 (Homo sapiens, UniProt Q9GZZ1); experiment: Nt-acetylation inhibitor assay (DTNB), Naa50; assay type: biochemical; details: calculated from IC50 with Cheng-Prusoff equation
T4 sequence (Q9GZZ1 1-169): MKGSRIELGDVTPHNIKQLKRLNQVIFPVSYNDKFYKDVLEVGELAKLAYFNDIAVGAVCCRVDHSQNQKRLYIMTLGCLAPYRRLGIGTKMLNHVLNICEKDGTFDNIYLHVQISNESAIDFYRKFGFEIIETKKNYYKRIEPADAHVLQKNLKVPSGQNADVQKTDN
Experimental: as §1

## CCCC[C@H](NC(=O)[C@H](CO)NC(=O)[C@H](CO)NC(=O)CSCCNC(=O)CCNC(=O)C(O)C(C)(C)COP(=O)(O)OP(=O)(O)OCC1OC(n2cnc3c(N)ncnc32)C(O)C1OP(=O)(O)O)C(=O)N1CCC[C@H]1C(N)=O (stereo partly shown) [CoA-Ac-SS(Nle)P]
[1]; NatA, calculated from IC50 with Cheng-Prusoff equation
  Ki: 0.143 ± 0.03 µM
[1]; inhibitors tested against NatA, all compounds with C-terminal amide
  IC50: 1.46 ± 0.29 µM
[1]; selectivity from Ki values of Table 2
  more potent towards NatA than all the other NATs tested: at least 100 fold
[2]
  Ki: 41.6 ± 51.2 µM
[3]
  Ki: 132 µM
[4]
  Ki: 98.9 µM
[5]
  Ki: 41.9 ± 6.4 µM
[6]
  Ki: 3.1 ± 0.8 µM
[7]
  phenotype in zebrafish: same phenotype in zebrafish as SSMP
[8]
  Ki: 17.7 ± 7.4 µM
